The results in this text go back to BindingDB's records for doi:10.1016/j.bmcl.2005.05.109 (Merck Research Laboratories, 2005).

The nature of the assay: Inhibition concentration (binding affinity) against […] melanocortin receptor 4 by displacement of [125I]NDP-alpha-MSH from the human receptors expressed in CHO cells.

The term IC50 denotes the concentration that gives 50% inhibition.

With `CN1C[C@H]2CC[C@@H]1[C@H](C(=O)N[C@H](Cc1ccc(F)cc1)C(=O)N1CCC(C(=O)NC(C)(C)C)(C3CCCCC3)CC1)C2` [(1R,4S,6R)-2-Methyl-2-aza-bicyclo[2.2.2]octane-6-carboxylic acid [(R)-2-(4-tert-butylcarbamoyl-4-cyclohexyl-piperidin-1-yl)-1-(4-fluoro-benzyl)-2-oxo-ethyl]-amide], the IC50 stood at 7 µM.
